From patent US8507464B2, “Phosphoramidate alkylator prodrugs” (Threshold Pharmaceuticals, Inc., priority 2005, dated 2013)
Read-outs that look alike come from different tables or passages of the source.

How the values were obtained:
[1] = system: HT-29 human colon carcinoma xenograft; test: HT-29 human colon carcinoma xenograft mouse model (Example 47); format: in vivo; settings: for % Inhibition vs Group 1: vs vehicle
Method: Female CB17/SCID mice (purchased from Charles River, Cambridge, Mass.), 7-8 weeks of age, were allowed to acclimatize for at least three days, and handled under pathogen-free conditions. Human colon carcinoma cell line HT-29 was obtained from the American Type Culture Collection. The cell lines were cultured in RPMI 1640 media supplemented with 10% fetal bovine serum. Cells were maintained in a 37° C. incubator with 5% CO2. The HT-29 cells were harvested from culture and inoculated at 3×10^6 cells/animal in the peritoneal subcutaneous space. When the tumors grew to an average volume of 100 mm^3 (day 8), each group of 10 mice was administered, for three weeks, vehicle alone (saline and PEG (10 mL/kg each), Group 1), Compound 36 alone (dissolved in 30% cyclodextrin in PBS) at a daily dose of 20, 60, or 200 mg/kg (Groups 2, 3 and 4, respectively), and Compound 36 at a daily dose of 20, 60, and 200 mg/kg given 2-3 hours after a dose of 10 mg/kg of 5FU (in saline) (Group 5, 6 and 7, respectively) and compared to a group receiving only 5FU at 10 mg/kg (Group 8) as tabulated below.
The body weight of each mouse was recorded twice per week. Growth of each xenograft was monitored by externally measuring tumors in two dimensions using a digital caliper twice per week. Tumor volume (V) was determined by the following equation: V=(L×W^2)/2, where L is the length and W is the width of a xenograft. Tumor volumes were measured twice weekly.

PC3 cells = test: Cell cycle distribution (flow cytometry); format: cell-based, human
Method: (§1) Cells ([…], PC3 and HT29) were seeded at a density of 1.0×10^6 cells/3 ml medium per 60 mm dish. After 24 h attachment, cells were exposed to Compound 25 at the indicated concentrations for 2 h under either normoxia (air) or anoxia (nitrogen). Cells were washed twice, and incubated for an additional 22 h in fresh medium. Cells were trypsinized, centrifuged, and fixed in 75% ethanol at least for 24 h at −20° C. Cell cycle distribution was determined using Guava Cell Cycle reagent (Guava, Hayward, Calif.) by flow cytometry (Guava, Hayward, Calif.).

HT29 cells = test: Cell cycle distribution (flow cytometry); format: cell-based, human
Method: as §1

HT29 spheroids = test: Spheroid model, clonogenic survival; format: cell-based; settings: Homo sapiens, HT-29, read-out: IC90 HT29 Spheroid 10% O2
AA8 = test: Clonogenic survival - DNA mutant repair cells; settings: Cricetulus griseus
NCI H460 xenograft = test: NCI H460 non small cell lung carcinoma xenograft mouse model (Example 48); format: in vivo; settings: day 29, vs vehicle
Method: Female CB17/SCID mice (purchased from Charles River, Cambridge, Mass.), 7-8 weeks of age, were allowed to acclimatize for at least three days, and handled under pathogen-free conditions. Human […] cell line NCI H460 was obtained from the American Type Culture Collection. The cell lines were cultured and harvested according to the procedure described in Example 47 and inoculated at 1×10^6 cells/animal in the peritoneal subcutaneous space. When the tumors grew to an average volume of 100 mm^3 (day 8), […], as tabulated in the table below: Compound 25 (2.5 mg/ml in 10% PEG; administration route—i.p.) and Taxol (1 mg/ml in 5% EtOH, 5% Cremophor and 90% saline; administration—i.v. 2 h after administration of Compound 25). The body weight and tumor volumes were measured as described in Example 47 above.
Results are presented in Table X2 based on tumor volume measurement on day 29 when vehicle treated mice had reached a volume of 946 mm^3. Groups of 5 mice receiving saline or no treatment were added in order to indicate any vehicle effects but are not used for comparisons in this analysis.

Irs1SF = test: Clonogenic survival - DNA mutant repair cells; settings: Cricetulus griseus
ACHN cells = test: Antiproliferation assay (Alamar Blue), anoxia vs air; settings: Homo sapiens, 2 h

Cn1c(COP(=O)(NCCCl)NCCCl)cnc1[N+](=O)[O-] [Compound 36]
MTD (in vivo): 400 mg/kg
% Inhibition vs Group 1 ([1]; Group 2: Compound 36 20 mg/kg daily, 3 weeks): 34.6%
% Inhibition vs Group 1 ([1]; Group 3: Compound 36 60 mg/kg daily): 16.1%
% Inhibition vs Group 1 ([1]; Group 4: Compound 36 200 mg/kg daily): 20.2%
body weight and mortality ([1]; particularly high dose group): some degree of weight loss and occasional mortality

Cn1c(COP(=O)(NCCBr)NCCBr)cnc1[N+](=O)[O-] [Compound 25]
Cell cycle G0/G1 (PC3 cells; 0.0005 μM, Air): 55
Cell cycle G2/M (PC3 cells; 0.0005 μM, Air): 32
Cell cycle S (PC3 cells; 0.0005 μM, Air): 12
Cell cycle G0/G1 (PC3 cells; 0.0005 μM, Nitrogen): 59
Cell cycle G2/M (PC3 cells; 0.0005 μM, Nitrogen): 31
Cell cycle S (PC3 cells; 0.0005 μM, Nitrogen): 10
Cell cycle G0/G1 (PC3 cells; 0.005 μM, Air): 52
Cell cycle G2/M (PC3 cells; 0.005 μM, Air): 34
Cell cycle S (PC3 cells; 0.005 μM, Air): 13
Cell cycle G0/G1 (PC3 cells; 0.005 μM, Nitrogen): 56
Cell cycle G2/M (PC3 cells; 0.005 μM, Nitrogen): 32
Cell cycle S (PC3 cells; 0.005 μM, Nitrogen): 11
Cell cycle G0/G1 (PC3 cells; 0.05 μM, Air): 55
Cell cycle G2/M (PC3 cells; 0.05 μM, Air): 33
Cell cycle S (PC3 cells; 0.05 μM, Air): 12
Cell cycle G0/G1 (PC3 cells; 0.05 μM, Nitrogen): 43
Cell cycle G2/M (PC3 cells; 0.05 μM, Nitrogen): 44
Cell cycle S (PC3 cells; 0.05 μM, Nitrogen): 12
Cell cycle G0/G1 (PC3 cells; 0.5 μM, Air): 55
Cell cycle G2/M (PC3 cells; 0.5 μM, Air): 32
Cell cycle S (PC3 cells; 0.5 μM, Air): 13
Cell cycle G0/G1 (PC3 cells; 0.5 μM, Nitrogen): 21
Cell cycle G2/M (PC3 cells; 0.5 μM, Nitrogen): 46
Cell cycle S (PC3 cells; 0.5 μM, Nitrogen): 33
Cell cycle G0/G1 (PC3 cells; 5 μM, Air): 55
Cell cycle G2/M (PC3 cells; 5 μM, Air): 32
Cell cycle S (PC3 cells; 5 μM, Air): 12
Cell cycle G0/G1 (PC3 cells; 5 μM, Nitrogen): 35
Cell cycle G2/M (PC3 cells; 5 μM, Nitrogen): 26
Cell cycle S (PC3 cells; 5 μM, Nitrogen): 38
Cell cycle G0/G1 (HT29 cells; 0.005 μM, Air): 52
Cell cycle G2/M (HT29 cells; 0.005 μM, Air): 35
Cell cycle S (HT29 cells; 0.005 μM, Air): 12
Cell cycle G0/G1 (HT29 cells; 0.005 μM, Nitrogen): 46
Cell cycle G2/M (HT29 cells; 0.005 μM, Nitrogen): 40
Cell cycle S (HT29 cells; 0.005 μM, Nitrogen): 14
Cell cycle G0/G1 (HT29 cells; 0.05 μM, Air): 50
Cell cycle G2/M (HT29 cells; 0.05 μM, Air): 35
Cell cycle S (HT29 cells; 0.05 μM, Air): 15
Cell cycle G0/G1 (HT29 cells; 0.05 μM, Nitrogen): 37
Cell cycle G2/M (HT29 cells; 0.05 μM, Nitrogen): 52
Cell cycle S (HT29 cells; 0.05 μM, Nitrogen): 11
Cell cycle G0/G1 (HT29 cells; 0.5 μM, Air): 48
Cell cycle G2/M (HT29 cells; 0.5 μM, Air): 37
Cell cycle S (HT29 cells; 0.5 μM, Air): 14
Cell cycle G0/G1 (HT29 cells; 0.5 μM, Nitrogen): 8
Cell cycle G2/M (HT29 cells; 0.5 μM, Nitrogen): 84
Cell cycle S (HT29 cells; 0.5 μM, Nitrogen): 8
Cell cycle G0/G1 (HT29 cells; 5 μM, Air): 47
Cell cycle G2/M (HT29 cells; 5 μM, Air): 39
Cell cycle S (HT29 cells; 5 μM, Air): 13
Cell cycle G0/G1 (HT29 cells; 5 μM, Nitrogen): 14
Cell cycle G2/M (HT29 cells; 5 μM, Nitrogen): 36
Cell cycle S (HT29 cells; 5 μM, Nitrogen): 50
IC90 (HT29 spheroids): 29 µM
IC90 (AA8; CHO-AA8, read-out: IC90 AA8 Air): > 300 µM
IC90 (AA8; CHO-AA8, read-out: IC90 AA8 N2): 0.85 µM
% Inhibition vs Group 2 (NCI H460 xenograft; Group 3: Compound 25 25 mg/kg (q1d × 5)/week × 2 weeks): 50.1%
% Inhibition vs Group 2 (NCI H460 xenograft; Group 4: Compound 25 50 mg/kg (q2d × 3)/week × 2 weeks): 52%
% Inhibition vs Group 2 (NCI H460 xenograft; Group 5: Compound 25 100 mg/kg (q7d × 1)/week × 2 weeks): 46.7%
IC90 (Irs1SF; read-out: IC90 Irs1SF Air): 20 µM
IC90 (Irs1SF; read-out: IC90 Irs1SF N2): 0.02 µM
IC50 (ACHN cells; read-out: IC50 ACHN Air): 62 µM
IC50 (ACHN cells; read-out: IC50 ACHN Anoxia): 0.2 µM
